Tests used:
5% calf serum in PBS [1] = test: Protein binding by rapid equilibrium dialysis (RED) in 5% calf serum; assay type: in vitro ADME; conditions: 8K MWCO
Protocol: Equipments. […] Impact™ protein precipitation plates were purchased from Phenomenex (Torrance, CA, USA). Sample preparation for RED. […] RED protocol. […] Aliquots (400µL) of the spiked treatment medium solutions were added to the donor wells followed by the addition of600µL of blank medium to the acceptor cells. […] The experiment was performed in triplicate for all compounds and concentrations.

5% calf serum in PBS [2] = test: Protein binding by high-throughput SPME fiber method in 5% calf serum in PBS
Protocol: The SPME experimental workflow consisted of five major steps. First, prior to extraction, fibers were conditioned in 100 µL of desorption solution ACN/H2O (80/20, v/v), which was acidified to contain 0.1% (v/v) formic acid. The second step, occurring prior to extraction, involved submersing the fiber in 100 µL of ultrapure water to remove traces of solvent from the extraction phase. This step was performed for 10 seconds using 100 rpm agitation, with water temperature set to 37 °C in order to avoid a temperature gradient between the fiber and the sample, as this could influence the initial uptake of analytes. […] This step was critical, as it ensured that there were no traces of binding components remaining on the coating that could interfere with the quantitation of analytes extracted by the SPME fiber. […]
(§1) The reliability of the new fiber-based SPME high-throughput method was tested by applying it to the determination of the protein binding (PB) percentages of the selected analytes. […] The protein binding of each compound was calculated using the slope ratios of the linear portions of the calibration curves. […]
The developed SPME method was further evaluated using a matrix consisted of 5% CS in PBS to mimic conditions typically used in in vitro cell assay applications. […]

plasma proteins = conditions: value reported in the literature, used to calculate the expected free amount; cited from earlier work
calf serum (CS) = test: Protein binding by ultra-thin coated HLB fiber SPME, slope ratio of calibrations in PBS vs 100% calf serum; conditions: 100% calf serum vs PBS pH 7.4; fiber SPME, 5 min extraction, 37 °C, 100 µL sample
Protocol: (§2) The SPME experimental workflow consisted of five major steps. First, prior to extraction, fibers were conditioned in 100 µL of desorption solution ACN/H2O (80/20, v/v), which was acidified to contain 0.1% (v/v) formic acid. The second step, occurring prior to extraction, involved submersing the fiber in 100 µL of ultrapure water to remove traces of solvent from the extraction phase. This step was performed for 10 seconds using 100 rpm agitation, with water temperature set to 37 °C in order to avoid a temperature gradient between the fiber and the sample, as this could influence the initial uptake of analytes. Following, extraction was performed on 100 µL of sample for 5 min, with samples thermostated to 37 °C, using 100 rpm agitation, prior to extraction. The fourth step consisted of a second rinsing of the fiber with 100 µL of water for 10 seconds to remove matrix components from the fiber. This step was critical, as it ensured that there were no traces of binding components remaining on the coating that could interfere with the quantitation of analytes extracted by the SPME fiber. […]
as §1

[3] = as above; conditions: bovine (calf), 100% calf serum, pH 7.4
Protocol: as §2, §1

| fraction unbound at 5 min [3] | Structure (SMILES) | binding values in 5% CS (RED) (5% calf serum in PBS [1]) [%] | PB values in 5% CS (SPME) (5% calf serum in PBS [2]) [%] | Protein binding (plasma proteins) [%] | protein binding (PB) (calf serum (CS)) [%] |
| --- | --- | --- | --- | --- | --- |
|  | CN1CCCC1c1cccnc1 (racemic) [Nicotine, (±) nicotine] | < 10 | 8 | <10 |  |
|  | CCN(CC)C(=O)c1cccc(C)c1 [DEET, N,N-Diethyl-meta-toluamide] | < 10 | 38 |  | 71 |
| 0.02 | O=C(O)Cc1ccccc1Nc1c(Cl)cccc1Cl [Diclofenac, diclofenac] | 91 |  |  |  |

From PMC5773572, “High-throughput analysis using non-depletive SPME: challenges and applications to the determination of free and total concentrations in small sample volumes” (Scientific Reports, 2018)
